{
  "source": "patent US10670605B2",
  "about": "“Cysteine reactive probes and uses thereof” (The Scripps Research Institute, priority 2015, dated 2020)",
  "key": {"[1]": {"test_system": "protein targets in MDA-MB-231 cells", "test": "Whole protein capture with click probes (SILAC proteomics), native vs heat denatured", "format": "binding, human", "conditions": "proteins liganded by parent fragment (3 / 14) and enriched by click probe (19 / 18)", "description": "Protein enrichment by 18 and 19 was measured by whole protein capture of isotopically-SILAC labeled MDA-MB-231 cells using quantitative (SILAC) proteomics."}, "[2]": {"test_system": "cysteines in MDA-MB-231 and Ramos cell proteomes", "test": "Competitive isoTOP-ABPP in cell lysates (in vitro): proteomic reactivity / liganded cysteine rate", "format": "binding, human", "description": "All cell lines were obtained from ATCC, were used with a low passage number and were grown at 37° C. with 5% CO2. MDA-MB-231 cells and HEK-293T cells were grown in DMEM supplemented with 10% fetal bovine serum, penicillin, streptomycin and glutamine. Jurkat, Ramos and MUM2C cells were grown in RPMI-1640 medium supplemented with 10% fetal bovine serum, penicillin and streptomycin. For in vitro labeling, cells were grown to 100% confluence for MDA-MB-231 cells or until cell density reached 1.5 million cells/mL for Ramos and Jurkat cells. […] Cell pellets were lysed by sonication and fractionated (100,000 g, 45 min) to yield soluble and membrane fractions, which were then adjusted to a final protein concentration of 1.5 mg/mL for proteomics experiments and 1 mg/mL for gel-based ABPP experiments. The soluble lysate was prepared fresh from frozen pellets directly before each experiment. Protein concentration was determined using the Bio-Rad DC™ protein assay kit.\nFor each sample, 100 μL of streptavidin-agarose beads slurry (Pierce) was washed in 10 mL PBS and then resuspended in 5 mL PBS. The SDS-solubilized proteins were added to the suspension of streptavidin-agarose beads and the bead mixture was rotated for 3 h at ambient temperature. After incubation, the beads were pelleted by centrifugation (1,400 g, 3 min) and were washed (2×10 mL PBS and 2×10 mL water).\nThe beads were transferred to eppendorf tubes with 1 mL PBS, centrifuged (1,400 g, 3 min), and resuspended in PBS containing 6 M urea (500 μL). To this was added 10 mM DTT (25 μL of a 200 mM stock in water) and the beads were incubated at 65° C. for 15 mins. 20 mM iodoacetamide (25 μL of a 400 mM stock in water) was then added and allowed to react at 37° C. for 30 mins with shaking. The bead mixture was diluted with 900 μL PBS, pelleted by centrifugation (1,400 g, 3 min), and resuspended in 200 μL PBS. To this was added 1 mM CaCl2 ([…]) and trypsin (2 μg, Promega, sequencing grade) and the digestion was allowed to proceed overnight at 37° C. with shaking. The beads were separated from the digest with Micro Bio-Spin columns (Bio-Rad) by centrifugation (1,000 g, 1 min), washed (2×1 mL PBS and 2×1 mL water) and then transferred to fresh eppendorfs with 1 mL water. The washed beads were washed once further in 140 μL TEV buffer (50 mM Tris, pH 8, 0.5 mM EDTA, 1 mM DTT) and then resuspended in 140 μL TEV buffer. 5 μL TEV protease (80 μM) was added and the reactions were rotated overnight at 29° C. The TEV digest was separated from the beads with Micro Bio-Spin columns by centrifugation (1,400 g, 3 min) and the beads were washed once with water (100 μL). The samples were then acidified to a final concentration of 5% (v/v) formic acid and stored at −80° C. prior to analysis."}, "IMPDH2 (C140)": {"biological_target": "T1, IMPDH2 (C140) (Homo sapiens, UniProt P12268)", "T1 construct": "Full length cDNAs encoding for IDH1 (Open Biosystems, Clone ID: 3880331) and IMPDH2 (Open Biosystems, Clone ID: 3447994); His6 (C); made in house; host or cells: E. coli BL21(DE3)", "test": "Click probe 18 labeling of recombinant IMPDH2 and its competition", "format": "binding", "conditions": "500 μM of each nucleotide"}},
  "data": [
    {"smiles": "C#CCCCCNC(=O)c1cc(NC(=O)CCl)cc(C(F)(F)F)c1", "note": "[compound 19]", "values": [
      {"measurement": "percentage of quantified protein targets sensitive to heat denaturation", "setting": "[1]", "value": 64, "unit": "%"}
    ]},
    {"smiles": "CC(=O)Nc1cc(C(F)(F)F)cc(C(F)(F)F)c1", "note": "[compound 17]", "values": [
      {"measurement": "relative proteomic reactivity (in words)", "setting": "[2]; 500 μM, electrophiles on common 3,5-di(trifluoromethyl)phenyl group", "value": "negligible activity"},
      {"measurement": "proteomic reactivity value (liganded cysteine rate)", "setting": "[2]; fragment 500 μM, % of quantified cysteines with R ≥4", "value": "< 0.2", "unit": "%"}
    ]},
    {"smiles": "Nc1nc2c(ncn2[C@@H]2O[C@H](COP(=O)(O)OP(=O)(O)OP(=O)(O)O)[C@@H](O)[C@H]2O)c(=O)[nH]1", "note": "[GTP]", "values": [
      {"measurement": "inhibition of 18 labeling of IMPDH2 by nucleotides", "setting": "IMPDH2 (C140)", "value": "inhibited"}
    ]},
    {"smiles": "Nc1ncnc2c1ncn2[C@@H]1O[C@H](COP(=O)(O)O)[C@@H](O)[C@H]1O", "note": "[AMP]", "values": [
      {"measurement": "inhibition of 18 labeling of IMPDH2 by nucleotides", "setting": "IMPDH2 (C140)", "value": "inhibited"}
    ]}
  ]
}
